Laboratory results taken from article PMC8583781, “Identification and Functional Analysis of a Pseudo-Cysteine Protease from the Midgut Transcriptome of Sphenophorus levis” (International Journal of Molecular Sciences, 2021).

Biological target: T1, Sl-CathL-mutSC
T1 construct: ORF of Sl-CathL-CS (GenBank JZ136744.1) without signal peptide, C-terminal 6x His tag, expressed in P. pastoris KM71H
Experiment: fluorogenic protease assay (AMC release), Ki by Morrison equation
Assay type: biochemical, Sphenophorus levis

Compound `CC(C)C[C@H](NC(=O)[C@H]1O[C@@H]1C(=O)O)C(=O)NCCCCN=C(N)N` [E-64] has a Ki of 38.5 ± 1.2 µM.
